Measurements from the supplement of paper PMC10307832.

Compound: CCCS(=O)(=O)Nc1ccc(F)c(C(=O)c2c[nH]c3ncc(-c4ccc(Cl)cc4)cc23)c1F [Vemurafenib] + CC(=O)c1c(C)c2cnc(Nc3ccc(N4CCNCC4)cn3)nc2n(C2CCCC2)c1=O [Palbociclib] (partner 0.5 µM)
Test: relative viability (nuclei count vs DMSO), 5 days (fraction); higher = more cells survive
Settings: first compound 0.1 µM
Outline: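 Medians of duplicate plates are given as relative viability. That measure is the nuclei count in treated wells divided by the count in vehicle wells. Counts were taken on 4× images of lung cancer cell lines in 1536-well plates, 5 days after pin-tool dosing the day after seeding with one drug alone or a fixed anchor-drug dose plus five library-drug doses (not always all listed) in √10 steps.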

Cell Line	relative viability
NCI-H2085	0.451
NCI-H727	0.631
NCI-H647	0.434
HARA	0.17
NCI-H3122	0.172
LCLC-97TM1	0.22
NCI-H520	0.188
NCI-H23	0.479
NCI-H2347	0.429
LXF-289	0.526
NCI-H1666	0.699

Same assay, conditions: first compound 0.3162 µM

Cell Line	relative viability
NCI-H1993	0.703
ChaGo-K-1	0.878
NCI-H1355	0.436
NCI-H1915	0.554
NCI-H838	0.177
NCI-H2009	0.161
EKVX	0.367
NCI-H2087	0.266
NCI-H1734	0.343
NCI-H460	0.108
NCI-H2170	0.396
SK-LU-1	0.368
COR-L23	0.178
HCC-15	0.673
NCI-H1944	0.313
EMC-BAC-2	0.407

Cell Line	relative viability
NCI-H1395	0.523
LC-2-ad	0.481
NCI-H2085	0.416
NCI-H727	0.811
NCI-H647	0.404
HARA	0.304
NCI-H3122	0.206
COR-L 105	0.328
LCLC-97TM1	0.22
NCI-H520	0.221
NCI-H23	0.498
HCC-827	0.509
NCI-H2347	0.44
LXF-289	0.601
NCI-H1666	0.665

Same assay, conditions: first compound 1 µM

Cell Line	relative viability
NCI-H2405	0.58
NCI-H1993	0.54
ChaGo-K-1	0.913
NCI-H1355	0.45
HCC-366	0.321
NCI-H1915	0.487
NCI-H838	0.343
A-427	0.553
NCI-H2009	0.199
EKVX	0.422
NCI-H2087	0.275
NCI-H1734	0.317
LU99A	0.373
NCI-H460	0.203
NCI-H2170	0.344
SK-LU-1	0.337
COR-L23	0.265
HCC-15	0.775

Cell Line	relative viability
NCI-H1944	0.385
EMC-BAC-2	0.468
NCI-H1792	0.643
NCI-H1395	0.611
LC-2-ad	0.442
NCI-H2085	0.509
NCI-H727	0.661
NCI-H647	0.394
HARA	0.318
NCI-H3122	0.178
COR-L 105	0.403
LCLC-97TM1	0.207
NCI-H520	0.222
NCI-H23	0.536
HCC-827	0.511
NCI-H2347	0.498
LXF-289	0.667
NCI-H1666	0.641
